Laboratory results published in ChEMBL document CHEMBL3603778, “Exploration on natural product anibamine side chain modification toward development of novel CCR5 antagonists and potential anti-prostate cancer agents” (Bioorg Med Chem Lett, 2015).

Experiments:
[1] = Antiproliferative activity against human M12 cells after 72 hrs by WST1 assay; format: functional, cell-based; settings: M12, 72 h
PC-3 = assay: Antiproliferative activity against human PC3 cells after 72 hrs by WST1 assay; format: functional, cell-based; settings: PC-3, 72 h
[2] = biological target: C-C chemokine receptor type 5 (Homo sapiens, UniProt P51681); assay: Antagonist activity at CCR5 (unknown origin) expressed in human MOLT4 cells assessed as inhibition of CCL5-induced calcium mobilization after 1 hr; format: functional, cell-based, MOLT-4
[3] = Cytotoxicity against mouse NIH/3T3 cells after 72 hrs by WST1 assay; format: cell-based, NIH3T3; settings: read-out: TC50

Sequence of C-C chemokine receptor type 5 (P51681 whole entry): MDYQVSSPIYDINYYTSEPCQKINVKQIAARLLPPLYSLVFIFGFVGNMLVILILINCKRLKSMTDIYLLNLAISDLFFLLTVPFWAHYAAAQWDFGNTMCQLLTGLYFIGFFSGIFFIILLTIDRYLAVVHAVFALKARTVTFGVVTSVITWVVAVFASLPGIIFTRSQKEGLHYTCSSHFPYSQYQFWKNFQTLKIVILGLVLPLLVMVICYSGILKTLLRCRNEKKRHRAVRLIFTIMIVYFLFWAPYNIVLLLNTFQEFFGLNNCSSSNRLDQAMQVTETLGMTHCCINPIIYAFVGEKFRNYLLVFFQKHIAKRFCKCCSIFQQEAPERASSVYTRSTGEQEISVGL

SMILES | IC50 (PC-3) [µM] | IC50 [2] [µM] | IC50 [1] [µM] | CC50 at 72 h [3] [µM]
Cc1c(CNC(=O)c2ccc(Br)cc2)c(C)[n+]2c(c1CNC(=O)c1ccc(Br)cc1)CCC2 | 147 | 38.5 | 92 | 182
Cc1c(CNC(=O)c2ccc(Cl)cc2)c(C)[n+]2c(c1CNC(=O)c1ccc(Cl)cc1)CCC2 | 179 | 46.2 | 135 | 263
Cc1c(CNC(=O)c2ccc(C(F)(F)F)cc2)c(C)[n+]2c(c1CNC(=O)c1ccc(C(F)(F)F)cc1)CCC2 | – | 121 | – | –
Cc1c(CNC(=O)c2ccc([N+](=O)[O-])cc2)c(C)[n+]2c(c1CNC(=O)c1ccc([N+](=O)[O-])cc1)CCC2 | > 300 | 67.7 | 161 | –
Cc1c(CNC(=O)c2ccc(C#N)cc2)c(C)[n+]2c(c1CNC(=O)c1ccc(C#N)cc1)CCC2 | – | 101 | – | –
Cc1c(CNC(=O)c2ccc(N)cc2)c(C)[n+]2c(c1CNC(=O)c1ccc(N)cc1)CCC2 | – | 174 | – | –
CCc1ccc(C(=O)NCc2c(C)c(CNC(=O)c3ccc(CC)cc3)c3[n+](c2C)CCC3)cc1 | 162 | 23.9 | 169 | –
Cc1ccc(C(=O)NCc2c(C)c(CNC(=O)c3ccc(C)cc3)c3[n+](c2C)CCC3)cc1 | 244 | 18.7 | 185 | –

Continued, in another order:

IC50 (PC-3) [µM] | IC50 [2] [µM] | SMILES | IC50 [1] [µM] | CC50 at 72 h [3] [µM]
101 | 12.7 | Cc1c(CNC(=O)c2ccc3ccccc3c2)c(C)[n+]2c(c1CNC(=O)c1ccc3ccccc3c1)CCC2 | 192 | –
47.1 | 17.3 | Cc1c(CNC(=O)c2ccc(-c3ccccc3)cc2)c(C)[n+]2c(c1CNC(=O)c1ccc(-c3ccccc3)cc1)CCC2 | 49.1 | 228
55.3 | 12.9 | Cc1c(CNC(=O)c2ccc(C3CCCCC3)cc2)c(C)[n+]2c(c1CNC(=O)c1ccc(C3CCCCC3)cc1)CCC2 | 20.9 | 43.4
31 | 30.1 | Cc1c(CNC(=O)c2ccc(C(C)(C)C)cc2)c(C)[n+]2c(c1CNC(=O)c1ccc(C(C)(C)C)cc1)CCC2 | 59.9 | 83.2
168 | 26.8 | Cc1c(CNC(=O)c2ccc(C(C)C)cc2)c(C)[n+]2c(c1CNC(=O)c1ccc(C(C)C)cc1)CCC2 | 120 | 270
– | 80.9 | Cc1c(CNC(=O)c2ccc(F)cc2)c(C)[n+]2c(c1CNC(=O)c1ccc(F)cc1)CCC2 | – | –
102 | – | CSc1ccc(C(=O)NCc2c(C)c(CNC(=O)c3ccc(SC)cc3)c3[n+](c2C)CCC3)cc1 | 252 | –
154 | 69 | COc1ccc(C(=O)NCc2c(C)c(CNC(=O)c3ccc(OC)cc3)c3[n+](c2C)CCC3)cc1 | 127 | –
508 | 1.35 | Cc1c(CNC(=O)c2ccccc2)c(C)[n+]2c(c1CNC(=O)c1ccccc1)CCC2 | 285 | 212
